One may read the IC50 as the concentration that inhibits the measured activity by half. Lower therefore signals greater potency.

Where only a bound is given, the exact number is not on record here.

The first assay has as its system SW480. Put plainly: CCK8 cell inhibition test on SW480 cells. To be noted: CCK-8, SW480 cells, 24 hours incubation at 37°C, compound 20 µM to 0.15625 µM in DMEM (2% FBS). Format: cell-based. As for the experimental part: Cells were digested, counted, and plated in a 96-well plate (flat-bottomed, transparent) with 10,000 cells/100 µl DMEM (10% FBS) per well . • 2. Observe the cell status on the next day and start adding drugs after the cells have fully adhered to the wall; • 3. Dilute the compound in DMEM (2% FBS) in a serial dilution format to concentrations of 20 µM, 10 µM, 5 µM, 2.5 µM, 1.25 µM, 0.625 µM, 0.3125 µM, 0.15625 µM, and 0 µM (with equal volume of DMSO). • 4. Add 100 µl of the above compounds at different concentrations to each well. Repeat for each concentration gradient in duplicate. Leave three blank wells (add only DMEM 2% FBS culture medium without cells) . • 5. Incubate at 37°C for 24 hours . • 6. Add 10 µl of CCK-8 Enhanced Solution to each well. Since the amount of CCK-8 added to each well is relatively small, there may be errors due to the reagent sticking to the well wall. It is recommended to gently tap the culture plate after adding the reagent to help mix it. • 7. Incubate in the incubator for 0.5-4 hours: The amount of formazan formed varies depending on the cell type. In most cases, incubation for 1 hour is sufficient. If color development is insufficient, continue incubation to confirm optimal conditions. • 8. Measure the absorbance at 450nm and 600nm (excluding interference from the reagent background color and the absorbance of the well plate itself); • 9. The final absorbance value is OD450nm-OD600nm, and the inhibition rate is calculated; Inhibition rate = [(Ac−As)/(Ac−Ab)] × 100% [formula] • As: absorbance of the experimental well (culture medium containing cells, CCK-8, and drug to be tested); • Ac: absorbance of control wells (culture medium containing cells, CCK-8, and no test drug); • Ab: absorbance of blank wells (culture medium without cells, test drugs, or CCK-8).
For `CC(C)(Oc1cccc(C2CCCN(C(=O)NCc3ccc(-c4cn[nH]c4)cc3)C2)c1)C(=O)NCC(=O)N1CCCC1CN` (centres unmarked) [Compound 115-020, N-(4-(1H-pyrazol-4-yl)benzyl)-3-(3-((1-((2-(2-(aminomethyl)pyrrolidin-1-yl)-2-oxoethyl)amino)-2-methyl-1-oxopropanoyl)oxy)phenyl)piperidine-1-carboxamide], the “SW480 IC50(µM)” value is listed as “Inactive”.
The same measure, in the same setting: under `CC(C)(Oc1cccc(C2CCCN(C(=O)NCCc3ccc(-c4cn[nH]c4)cc3)C2)c1)C(=O)NCC(=O)N1CCCC1CN` (centres unmarked) [Compound 115-021, N-(4-(1H-pyrazol-4-yl)phenethyl)-3-(3-((1-((2-(2-(aminomethyl)pyrrolidin-1-yl)-2-oxoethyl)amino)-2-methyl-1-oxopropanoyl)oxy)phenyl)piperidine-1-carboxamide] stands “Inactive”; under `CC(C)(Oc1cccc(C2CCCN(S(=O)(=O)c3cccc(-c4cn[nH]c4)c3)C2)c1)C(=O)NS(=O)(=O)c1ccc(C(F)(F)F)cc1` (centres unmarked) [Compound 115-025, 2-(3-(1-((3-(1H-pyrazol-4-yl)phenyl)sulfonyl)piperidin-3-yl)phenoxy)-2-methyl-N-((4-(trifluoromethyl)phenyl)sulfonyl)propionamide], “Inactive”.
On the same count and under the same terms, under `CC(C)(Oc1cccc(C2CCCN(S(=O)(=O)c3ccc(-c4cn[nH]c4)cc3)C2)c1)C(=O)NS(=O)(=O)c1ccc(C(F)(F)F)cc1` (centres unmarked) [Compound 115-026, 2-(3-(1-((4-(1H-pyrazol-4-yl)phenyl)sulfonyl)piperidin-3-yl)phenoxy)-2-methyl-N-((4-(trifluoromethyl)phenyl)sulfonyl)propionamide] stands “Inactive”.
On to “N-(2-((S)-2-(2-aminoethyl)pyrrolidin-1-yl)-2-oxoethyl)-2-(3-(1-((4'-isopropyl-[1,1'-biphenyl]-3-yl)sulf onylpiperidin-3-yl)phenoxy)-2-methylpropanamide) [Compound 115-014]”, for which half-maximal inhibition (IC50) required 52.9 µM.

The same assay, now with this note: Homo sapiens; CCK-8, SW480 cells, 24 hours incubation at 37°C, compound 20 µM to 0.15625 µM in DMEM (2% FBS).
The molecule `CC(C)c1ccc(-c2cccc(S(=O)(=O)N3CCCC(c4cccc(OC(C)(C)C(=O)NS(=O)(=O)c5ccc(C(F)(F)F)cc5)c4)C3)c2)cc1` (centres unmarked) [Compound 115, reference compound] yielded an IC50 of 2.81 µM.
In turn, `CC(C)c1ccc(-c2cccc(S(=O)(=O)N3CCCC(c4cccc(OC(C)(C)C(=O)NCC(=O)N5CCC[C@@H]5CN)c4)C3)c2)cc1` (some centres unmarked) [Compound 115-011] gave an IC50 of 3.12 to 6.25 µM.
As to `CC(C)c1ccc(-c2cccc(S(=O)(=O)N3CCCC(c4cccc(OC(C)(C)C(=O)NCC(=O)N5CC[C@H](CN)C5)c4)C3)c2)cc1` (some centres unmarked) [Compound 115-013], the IC50 is 3.12 µM.
On the same count and under the same terms, under `CC(C)c1ccc(-c2cccc(S(=O)(=O)N3CCCC(c4cccc(OC(C)(C)C(=O)NS(=O)(=O)N5CCC[C@@H]5CN)c4)C3)c2)cc1` (stereo partly drawn) [Compound 115-017, N-(2-(R)-(Aminomethyl)pyrrolidin-1-yl)sulfonyl)-2-(3-(1-((4'-isopropyl-[1,1'-biphenyl]-3-yl)sulfonylpiperidin-3-yl)phenoxy)-2-methylpropionamide] stands 10.6 µM; under `CC(C)n1cc(-c2cccc(S(=O)(=O)N3CCCC(c4cccc(OC(C)(C)C(=O)NCC(=O)N5CCCC5CN)c4)C3)c2)cn1` (centres unmarked) [Compound 115-022, N-(2-(2-(Aminomethyl)pyrrolidin-1-yl)-2-oxoethyl)-2-(3-(1-((3-(1-isopropyl-1H-pyrazol-4-yl)phenyl)sulfonyl)piperidin-3-yl)phenoxy)-2-methylpropanamide], 9.71 µM.
Molecule `CC(C)(Oc1cccc(C2CCCN(S(=O)(=O)c3cccc(-c4cn[nH]c4)c3)C2)c1)C(=O)NCC(=O)N1CCCC1CN` (centres unmarked) [Compound 115-023, 2-(3-(1-((3-(1H-pyrazol-4-yl)phenyl)sulfonyl)piperidin-3-yl)phenoxy)-N-(2-(2-(aminomethyl)pyrrolidin-1-yl)-2-oxoethyl)-2-methylpropanamide] yielded an IC50 of 30.5 µM.
Turning to `CC(C)n1cc(-c2cccc(S(=O)(=O)N3CCCC(c4cccc(OC(C)(C)C(=O)NS(=O)(=O)c5ccc(C(F)(F)F)cc5)c4)C3)c2)cn1` (centres unmarked) [Compound 115-024, 2-(3-(1-((3-(1-isopropyl-1H-pyrazol-4-yl)phenyl)sulfonyl)piperidin-3-yl)phenoxy)-2-methyl-N-((4-(trifluoromethyl)phenyl)sulfonyl)propionamide], it took 11.1 µM to reach half-maximal inhibition (IC50). Compared with the last molecule, the IC50 is about 2.7-fold lower.
`CC(C)(Oc1cccc(C2CCCN(C(=O)c3ccc(-c4cn[nH]c4)cc3)C2)c1)C(=O)NCC(=O)N1CCCC1CN` (centres unmarked) [Compound 115-027, 2-(3-(1-(4-(1H-pyrazol-4-yl)benzoyl)piperidin-3-yl)phenoxy)-N-(2-(2-(aminomethyl)pyrrolidin-1-yl)-2-oxoethyl)-2-methylpropanamide]: the 50% inhibitory concentration (IC50) worked out at 23.1 µM.
The same measure, in the same setting: under `CC(C)(Oc1cccc(C2CCCN(C(=O)Cc3ccc(-c4cn[nH]c4)cc3)C2)c1)C(=O)NCC(=O)N1CCCC1CN` (centres unmarked) [Compound 115-028, 2-(3-(1-(2-(4-(1H-pyrazol-4-yl)phenyl)acetyl)piperidin-3-yl)phenoxy)-N-(2-(2-(aminomethyl)pyrrolidin-1-yl)-2-oxoethyl)-2-methylpropanamide] stands 15.7 µM; under `CC(C)(Oc1cccc(C2CCCN(C(=O)CCc3ccc(-c4cn[nH]c4)cc3)C2)c1)C(=O)NCC(=O)N1CCCC1CN` (centres unmarked) [Compound 115-029, 2-(3-(1-(3-(4-(1H-pyrazol-4-yl)phenyl)propionyl)piperidin-3-yl)phenoxy)-N-(2-(2-(aminomethyl)pyrrolidin-1-yl)-2-oxoethyl)-2-methylpropionamide], 20.8 µM.
Same read-out and setting: under `CC(C)c1ccc(-c2ccc(C(=O)N3CCCC(c4cccc(OC(C)(C)C(=O)NCC(=O)N5CCCC5CN)c4)C3)cc2)cc1` (centres unmarked) [Compound 115-030] stands 3.12 to 6.25 µM; under `CC(C)c1ccc(-c2ccc(CC(=O)N3CCCC(c4cccc(OC(C)(C)C(=O)NCC(=O)N5CCCC5CN)c4)C3)cc2)cc1` (centres unmarked) [Compound 115-031, N-(2-(2-(Aminomethyl)pyrrolidin-1-yl)-2-oxoethyl)-2-(3-(1-(2-(4'-isopropyl-[1,1'-biphenyl]-4-yl)acetyl)piperidin-3-yl)phenoxy)-2-methylpropanamide], 6.99 µM; under `CC(C)c1ccc(-c2cccc(S(=O)(=O)N3CCC=C(c4cccc(OC(C)(C)C(=O)NCC(=O)N5CCCC5CN)c4)C3)c2)cc1` (centres unmarked) [Compound 115-049, N-(2-(2-(Aminomethyl)pyrrolidin-1-yl)-2-oxoethyl)-2-(3-(1-((4'-isopropyl-[1,1'-biphenyl]-3-yl)sulfonyl)-1,2,5,6-tetrahydropyridin-3-yl)phenoxy)-2-methylpropanamide], at most 2.65 µM.
The same measure, in the same setting: under `CC(C)c1ccc(-c2cccc(S(=O)(=O)N3CCCC(c4cccc(OC(C)(C)C(=O)NCC(=O)N5CCCC5CN)c4)C3)n2)cc1` (centres unmarked) [Compound 115-052, N-(2-(2-(aminomethyl)pyrrolidin-1-yl)-2-oxoethyl)-2-(3-(1-((6-(4-isopropylphenyl)pyridin-2-yl)sulfonyl)piperidin-3-yl)phenoxy)-2-methylpropanamide] stands at most 2.74 µM; under `CC(C)c1ccc(-c2cncc(S(=O)(=O)N3CCCC(c4cccc(OC(C)(C)C(=O)NCC(=O)N5CCCC5CN)c4)C3)c2)cc1` (centres unmarked) [Compound 115-055, N-(2-(2-(Aminomethyl)pyrrolidin-1-yl)-2-oxoethyl)-2-(3-(1-((5-(4-isopropylphenyl)pyridin-3-yl)sulfonyl)piperidin-3-yl)phenoxy)-2-methylpropanamide], 4.06 µM.
